One data set in a line: Acute fish toxicity. Particulars: in vivo; young carp, Official Standard of Ministry of Agriculture & Forestry; read-out: acute fish toxicity TLm. The method, then:
Acute oral toxicity LD50 value of the compound of the invention measured on SD-strain rat is more than 2,000 mg/Kg for any of the trans-form, cis-form and a mixture thereof in equal amount and further acute fish toxicity TLm value (as defined by Official Standard issued from Ministry of Agriculture & Forestry) measured on young carp is more than 20 ppm for any of the above compounds.

Data set [1] has as its system Echinochloa crus-galli var. oryzicola. Nature of the data set: Test Example 1: pot test on selectivity, inhibition of Echinochloa crus-galli var. oryzicola. It counts as in vivo. Particulars: for inhibition at 750 g/ha / inhibition at 1500 g/ha / inhibition at 3000 g/ha / inhibition at 6000 g/ha / inhibition at 9000 g/ha: Echinochloa crus-galli, 720 h; for inhibition at 1500 g/ha: 150 g/10 are; for inhibition at 3000 g/ha: 300 g/10 are; for inhibition at 6000 g/ha: 600 g/10 are; for inhibition at 9000 g/ha: 900 g/10 are; for activity for killing Echinochloa spp.: trans-form, cis-form and mixtures compared. An outline of the steps:
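Paddy soil pots were sown with 50 barnyard grass and 30 rice seeds under about 1 cm flooding, and emulsion at set concentrations was dripped in at the weed's 1-leaf and 5-leaf stages. After 30 days, dry weights of weed and rice gave inhibition versus untreated.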

Data set [2] has the same test system. Nature of the data set: Test Example 4: field test in submerged directly seeded paddy field, Echinochloa crus-galli var. oryzicola. The class given is in vivo. Particulars: Echinochloa crus-galli, 504 h; 300 g/10 are, emulsion, 2- to 3-leaf stage, 21 days after application; read-out: Inhibition (%) of E. crus-galli var. oryzicola. The method, then: In a Wagner pot of 1/500 are, paddy field soil (alluvial soil) was placed and 50 seeds of Echinochloa crus-galli var. oryzicola and 30 seeds of paddy rice were seeded in the surface layer of said soil and the submerging depth was kept at about 1 cm. When Echinochloa crus-galli var. oryzicola reached at the one leaf stage and 5-leaf stage, the emulsion of a predetermined concentration, prepared according to Example 4 was added dropwise. After 30 days from the treatment with the chemical, dry weights of Echinochloa crus-galli var. oryzicola and paddy rice were measured and the inhibition rate was calculated with reference to untreated area. [formula]
In a 10 m^2 paddy field, 30 g of Echinochloa crus-galli var. oryzicola seeds were seeded at the time of puddling and the depth of submerging was kept at 3-5 cm. 3 Days after the puddling, 50 g of paddy rice at the emergence stage (Asahi species) were seeded. When Echinochloa crus-galli var. oryzicola and paddy rice reached a 2- to 3-leaf stage, a predetermined dose of the emulsion prepared according to Example 4 was applied uniformly by means of a manual spraying machine. Test results were examined 21 days after the application of the chemicals in the similar manner as in Test Example 1.
The comparative chemical 1 used was that commercially available and the comparative chemical 2 used was prepared according to Example 4.

Data set [3] has the same test system. Nature of the data set: Test Example 2: concrete pot test on killing effect, Echinochloa crus-galli var. oryzicola. It counts as in vivo. The conditions noted are these: Echinochloa crus-galli, 720 h, granule, 30 days after treatment; for inhibition at 1000 g/ha: 100 g/10 are; for inhibition at 3000 g/ha: 300 g/10 are; for inhibition at 9000 g/ha: 900 g/10 are. Put shortly:
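Barnyardgrass seeded in flooded alluvial paddy soil (~3 cm water) in concrete pots, with 2.5-leaf Asahi rice transplanted before weed emergence. Granules applied at weed 1-leaf or 5-leaf stage. Dry weights measured 30 days after treatment; inhibition rate calculated versus untreated area.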

Setting [4] is: read-out: Inhibition (%) by treatment at 1-leaf stage of E. crus-galli var. oryzicola, E. crus-galli var. oryzicola.
[5] abbreviates: read-out: Inhibition (%) by treatment at 5-leaf stage of E. crus-galli var. oryzicola, E. crus-galli var. oryzicola.
Where [6] appears, read: 75 g/10 are, 1-leaf stage, dry weight 30 days after treatment, read-out: Inhibition (%) by treatment at 1-leaf stage, E. crus-galli var. oryzicola.
[7] abbreviates: 75 g/10 are, 5-leaf stage, dry weight 30 days after treatment, read-out: Inhibition (%) by treatment at 5-leaf stage, E. crus-galli var. oryzicola.
[8] abbreviates: 1-leaf stage, dry weight 30 days after treatment, read-out: Inhibition (%) by treatment at 1-leaf stage, E. crus-galli var. oryzicola.
Setting [9] is: 5-leaf stage, dry weight 30 days after treatment, read-out: Inhibition (%) by treatment at 5-leaf stage, E. crus-galli var. oryzicola.

Read-outs that look alike come from different tables or passages of the source.

Results on three molecules are retold here after US4255183A, “Substituted phenyl urea and herbicides for use in paddy field” (Hokko Chemical Industry Co., Ltd., priority 1977, dated 1981).

The term inhibition denotes how much of the control response was suppressed. On to `CC=CCOc1ccc(NC(=O)N(C)C)cc1` [Mixture of trans- and cis-forms 1:1], for which the LC50 in “Acute fish toxicity” was more than 20 µg/mL. In data set [1] (75 g/10 are, 1-leaf stage, dry weight 30 days after treatment), the “Inhibition (%) by treatment at 1-leaf stage, E. crus-galli var. oryzicola” value is listed as 96%. Also, the “Inhibition (%) by treatment at 5-leaf stage, E. crus-galli var. oryzicola” value in data set [1] (75 g/10 are, 5-leaf stage, dry weight 30 days after treatment) is on record as 83%. The inhibition at 3000 g/ha in data set [2] was found to be 100%. For the same molecule, in data set [3] (setting [4]), the inhibition at 1000 g/ha was 100%, the inhibition at 3000 g/ha came out at 100% and the inhibition at 9000 g/ha came out at 100%. In data set [3] (setting [5]), the inhibition at 1000 g/ha stood at 100%, the inhibition at 3000 g/ha amounted to 100% and the inhibition at 9000 g/ha came out at 100%.

In the case of `C/C=C\COc1ccc(NC(=O)N(C)C)cc1` [cis-form, 3-(4-cis-crotyloxyphenyl)-1,1-dimethyl urea], the LC50 in the data set “Acute fish toxicity” was more than 20 µg/mL. Also, the results for the inhibition at 750 g/ha in data set [1] (setting [6]) and in data set [1] (setting [7]) were 95% and 82%, respectively. Also, the inhibition at 1500 g/ha in data set [1] (setting [8]) and in data set [1] (setting [9]) was 100% in each case. For the same molecule, the inhibition at 3000 g/ha in data set [1] (setting [8]), in data set [1] (setting [9]), in data set [2], in data set [3] (setting [4]) and in data set [3] (setting [5]) was 100% in each case. For the same molecule, the inhibition at 6000 g/ha in data set [1] (setting [8]) and in data set [1] (setting [9]) was 100% each time. Moreover, the inhibition at 9000 g/ha in data set [1] (setting [8]), in data set [1] (setting [9]), in data set [3] (setting [4]) and in data set [3] (setting [5]) was 100% throughout. For the same molecule, the “activity for killing Echinochloa spp.” value in data set [1] is reported as “equivalent”. The inhibition at 1000 g/ha in data set [3] (setting [4]) and in data set [3] (setting [5]) was 100% in each case.

Turning to `C/C=C/COc1ccc(NC(=O)N(C)C)cc1` [trans-form, 3-(4-trans-crotyloxyphenyl)-1,1-dimethyl urea], in “Acute fish toxicity”, the LC50 is more than 20 µg/mL. Also, the values for the inhibition at 750 g/ha in data set [1] (setting [6]) and in data set [1] (setting [7]) were 96% and 86%, respectively. For the same molecule, the inhibition at 1500 g/ha in data set [1] (setting [8]) and in data set [1] (setting [9]) was 100% throughout. Further, the inhibition at 3000 g/ha in data set [1] (setting [8]), in data set [1] (setting [9]), in data set [2], in data set [3] (setting [4]) and in data set [3] (setting [5]) was 100% in each case. Besides, the inhibition at 6000 g/ha in data set [1] (setting [8]) and in data set [1] (setting [9]) was 100% each time. Besides, the inhibition at 9000 g/ha in data set [1] (setting [8]), in data set [1] (setting [9]), in data set [3] (setting [4]) and in data set [3] (setting [5]) was 100% throughout. Further, the “activity for killing Echinochloa spp.” value in data set [1] is on record as “equivalent”. Also, the inhibition at 1000 g/ha in data set [3] (setting [4]) and in data set [3] (setting [5]) was 100% in each case.
